# Experimental data from US9932392B2, “Prevention of infection” (priority 2012, dated 2018).
# Assays:
# [1] = tested on: toxinogenic C. difficile strain 10465; assay: Prevention of recurrence of C. difficile infection after vancomycin (mouse model); assay type: in vivo, C57BL/6 mice; conditions: vancomycin day -1 to 3 (5 doses), then Ig 400 mG/kg po day 4 to 8 (5 doses); observation until day 28; FIG. 7
# Experimental: (§1) C57BL/6 mice were housed in cages with free access to chow (Purina 5000) and tap water. Animals were treated with a mixture of oral antibiotics (kanamycin, gentamicin, colistin, metronidazole, and vancomycin) for 3 days as previously described (Chen et al (2008) Gastroenterology 135: 1984-92). Two days later, they were given parenteral clindamycin phosphate (10 mG/kg s.c.) [Day −1]. One day later [Day 0] they were challenged by gavage with 0.5×10^5 cfu of toxinogenic C. difficile strain 10465. A moderate to fulminant colitis developed 1 to 5 days after the administration of C. difficile. Untreated, this progresses rapidly into severe and fatal colitis in the majority of animals. The test compounds (suspended in carbonate buffer) were administered to groups at the dosage levels as shown in Table 1 (n=10 per group except group 4). Dosing (by gavage) started 1 day before C. difficile challenge [Day −1] and continued daily for 5 days.
# (§2) Animals were weighed daily and observed three times daily for morbidity and presence or absence of severe CDI with diarrhea. Animals judged to be in a moribund state [extended period of weight loss progressing to an emaciated state, anorexia for 24-48 hrs, prolonged lethargy (more than 3 days), signs of paralysis, skin erosions or trauma, hunched posture, distended abdomen] were euthanized by a single injection of sodium pentobarbital. […]
# [2] = tested on: toxinogenic C. difficile strain 10465; assay: Primary prevention of C. difficile infection (mouse model); assay type: in vivo, C57BL/6 mice; conditions: po gavage day -1 to 3 (5 doses), FIG. 6
# Experimental: as §1, §2
structure (smiles),measurement,setting,value
CN[C@H](CC(C)C)C(=O)N[C@H]1C(=O)N[C@@H](CC(N)=O)C(=O)N[C@H]2C(=O)N[C@H]3C(=O)N[C@H](C(=O)N[C@H](C(=O)O)c4cc(O)cc(O)c4-c4cc3ccc4O)[C@H](O)c3ccc(c(Cl)c3)Oc3cc2cc(c3O[C@@H]2O[C@H](CO)[C@@H](O)[C@H](O)[C@H]2O[C@H]2C[C@](C)(N)[C@H](O)[C@H](C)O2)Oc2ccc(cc2Cl)[C@H]1O [Vancomycin],rate of recurrence of infection (animals),[1],6 out of 10
same,fraction of animals with recurrence of C. difficile infection after stopping treatment,[2],60%
same,survival rate,"[2]; vancomycin 50 mG/kg, IgA 400 mG/kg",40%
